Measurements: patent US20260374766A1, “METHODS FOR TREATING CANCER” (Antares Therapeutics, Inc., priority 2022, published 2026)
Where two headings read alike, the source gives them in different places.

Legend:
[1] = biological target: T1, p53 Y220C mutant protein (amino acid residues 94-293) (Homo sapiens, UniProt P04637, Y220C); assay: Surface Plasmon Resonance (SPR) assay, Kd_kinetic; type: binding; settings: read-out: SPR P53 Y220C KD kinetic
T1 construct: p53 Y220C mutant protein (amino acid residues 94-293)
Outline: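 Binding measured by SPR on a Biacore 8K in running buffer of 50 mM Tris pH 7.5, 100 mM NaCl, 1 mM DTT, 0.01% Brij35, 0.05% Tween-20, 1% DMSO.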

[2] = biological target: T1, p53 Y220C mutant protein (amino acid residues 94-293); assay: Thermal Shift Assay (TSA), dTM; type: binding; settings: for ΔTm at 100 µM: 100 uM compound; for ΔTm at 10 µM: 10 uM compound
Outline: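 TM is derived by fitting Sypro Orange melt curves (30 °C to 50 °C, 0.03 °C/second) to a Boltzmann two-state model. Beforehand, 5 μM p53 Y220C (94-293) sits with 10 μM or 100 μM compound for 3 hours at 20 °C in HEPES pH7.4 buffer containing 100 mM NaCl and 1% DMSO.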

p53 Y220C = p53 Y220C (Homo sapiens, UniProt P04637, Y220C); assay: Luciferase Reporter Assay (Luc), p53 response element, NClH1299 cells with inducible p53 Y220C; type: cell-based; settings: luciferase reporter, NClH1299 inducible p53 Y220C, 6 hour; for AC50: read-out: Luc P53 Y220C AC50
Outline: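 Doxycycline (0.5 ug/mL, 24 h) induces the mutant before a 6-hour compound treatment. Reporter activity is then quantified by One-Glo luminescence.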

NUGC3 p53 Y220C = assay: Cell Proliferation Assay (CellTiter-Glo, CTG), NUGC3 p53 Y220C; type: cell-based; settings: Homo sapiens, NUGC-3, 120 h, CellTiter-Glo, 5 days
Outline: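 NClH1299 lines stably transduced with Tet-inducible p53 Y220C or R273H, plus NUGC3, were treated with compound for 5 days at 250-500 cells/well. IC50 derived from CellTiter-Glo luminescent signal after 10 min room-temperature incubation.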

H1299 p53 Y220C = assay: Cell Proliferation Assay (CellTiter-Glo, CTG), H1299 p53 Y220C (NClH1299-inducible p53 Y220C); type: cell-based; settings: Homo sapiens, NCI-H1299, 120 h, CellTiter-Glo, 5 days
Outline: (§1)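 Cells seeded at 250-500 per well and exposed to compound for 5 days. Viability read by CellTiter-Glo luminescence after 10 min at room temperature; IC50 calculated. H1299 lines carry Tet-One inducible p53 mutant constructs introduced by lentiviral transduction.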

H1299 p53 R273H = assay: Cell Proliferation Assay (CellTiter-Glo, CTG), H1299 p53 R273H (NClH1299-inducible p53 R273H); type: cell-based; settings: Homo sapiens, NCI-H1299, 120 h, CellTiter-Glo, 5 days
Outline: as §1

[3] = thermal shift, read-out: TSA P53 Y220C dTM (100 uM)
[4] = 10 uM tool compound as positive control
[5] = thermal shift, read-out: TSA P53 Y220C dTM (10 uM)
[6] = p53 Y220C, read-out: TSA P53 Y220C dTM
[7] = NClH1299-inducible p53 Y220C cells
[8] = NClH1299-inducible p53 R273H cells

SMILES	Kd ([1]; SPR, kinetic KD, p53 Y220C) [µM]	ΔTm at 100 µM [2, 3] [°C]	Emax (p53 Y220C; [4]) [%]	AC50 (p53 Y220C) [µM]	IC50 (NUGC3 p53 Y220C; NUGC3 p53 Y220C) [µM]	IC50 (H1299 p53 Y220C; H1299 p53 Y220C) [µM]	IC50 (H1299 p53 R273H; H1299 p53 R273H) [µM]	ΔTm at 10 µM [2, 5] [°C]	Kd ([1]; SPR, p53 Y220C) [µM]	ΔTm at 10 µM [2, 6] [°C]	AC50 (p53 Y220C; AC50) [µM]	Emax (p53 Y220C; Emax) [%]	IC50 (NUGC3 p53 Y220C; NUGC3 cells) [µM]	IC50 (H1299 p53 Y220C; [7]) [µM]	IC50 (H1299 p53 R273H; [8]) [µM]	ΔTm at 100 µM [2, 6] [°C]	Kd [1] [µM]
CN1CC[C@@H](Nc2cccn3c(CC(F)(F)F)c(C#CCNc4ccccc4)nc23)[C@@H](F)C1 [Example 112, (3S,4R)-3-fluoro-1-methyl-N-{2-[3-(phenylamino)prop-1-yn-1-yl]-3-(2,2,2-trifluoroethyl)imidazo[1,2-a]pyridin-8-yl}piperidin-4-amine]	0.1 to 1	5 to 10	70 to 80	> 3	> 3	> 3	≥ 10	–	–	–	–	–	–	–	–	–	–
CNC(=O)c1ccc(NCC#Cc2nc3c(N[C@@H]4CCNC(=O)C4)cccn3c2SC(F)(F)F)c(OC)c1 [Example 175]	0.01 to 0.1	5 to 10	< 70	> 3	> 3	> 3	≥ 10	5 to 10	–	–	–	–	–	–	–	–	–
CNC(=O)c1ccc(OC)c(NCC#Cc2nn3c(N[C@@H]4CCNC[C@@H]4F)cccc3c2SC(F)F)c1 [Example 195]	< 0.01	≥ 10	80 to 90	< 0.75	< 0.75	< 0.75	5 to 8	≥ 10	–	–	–	–	–	–	–	–	–
CNC(=O)c1cnc(OC)c(NCC#Cc2nc3c(N[C@@H]4CCN(C)C[C@@H]4F)nccn3c2SC(F)(F)F)c1 [Example 254]	–	–	–	–	–	–	–	–	< 0.01	≥ 10	< 0.75	80 to 90	< 0.75	< 0.75	≥ 10	–	–
CNC(=O)c1cc(F)c(OC)c(NCC#Cc2nc3c(N[C@@H]4CCNC[C@@H]4F)cccn3c2SC(F)(F)F)c1 [Example 304]	–	–	–	–	–	–	–	–	< 0.01	≥ 10	< 0.75	> 90	< 0.75	< 0.75	< 5	–	–
CNC(=O)c1ccc(NCC#Cc2nc3c(N[C@@H]4C[C@H]5CC[C@@H]([C@@H]4F)N5C)cccn3c2SC(F)(F)F)c(OC)c1 [Example 122]	< 0.01	≥ 10	80 to 90	< 0.75	< 0.75	< 0.75	5 to 8	≥ 10	–	–	–	–	–	–	–	–	–
CNC(=O)CN1CC[C@@H](Nc2nccn3c(SC(F)(F)F)c(C#CCNc4cc(C(=O)NC)ccc4OC)cc23)[C@@H](F)C1 [Example 352]	–	–	–	–	–	–	–	–	< 0.01	≥ 10	< 0.75	> 90	< 0.75	< 0.75	≥ 10	–	–
CNC(=O)c1ccc(O)c(NCC#Cc2cc3c(N[C@@H]4CCN(C)C[C@@H]4F)nccn3c2SC(F)(F)F)c1 [Example 123]	< 0.01	–	> 90	< 0.75	< 0.75	< 0.75	≥ 10	≥ 10	–	–	–	–	–	–	–	–	–
CNC(=O)c1ccc(NCC#Cc2nc3c(N[C@@H]4C[C@H]5CC[C@H](N5)[C@@H]4F)cccn3c2SC(F)(F)F)c(OC)c1 [Example 324, 4-{[3-(8-{[(1S,2S,3R,5R)-2-fluoro-8-azabicyclo[3.2.1]octan-3-yl]amino}-3-[(trifluoromethyl)sulfanyl]imidazo[1,2-a]pyridin-2-yl)prop-2-yn-1-yl]amino}-3-methoxy-N-methylbenzamide]	–	–	–	–	–	–	–	–	< 0.01	≥ 10	< 0.75	80 to 90	< 0.75	< 0.75	5 to 8	≥ 10	–
CNC(=O)c1ccc(OC)c(NCC#Cc2nc3c(N[C@@H]4CCNC[C@@H]4F)cccn3c2SC(F)(F)F)n1 [Example 217]	–	≥ 10	70 to 80	< 0.75	< 0.75	< 0.75	5 to 8	≥ 10	–	–	–	–	–	–	–	–	< 0.01
CNC(=O)c1ccc(NCC#Cc2cc3c(N[C@@H]4CCN(C)C[C@@H]4F)cccn3c2SC(F)(F)F)c(OC)c1 [Example 126, 4-{[3-(8-{[(3S,4R)-3-fluoro-1-methylpiperidin-4-yl]amino}-3-[(trifluoromethyl)sulfanyl]indolizin-2-yl)prop-2-yn-1-yl]amino}-3-methoxy-N-methylbenzamide]	< 0.01	–	> 90	< 0.75	< 0.75	< 0.75	8 to 10	≥ 10	–	–	–	–	–	–	–	–	–
COc1ncc(C(N)=O)cc1NCC#Cc1nc2c(N[C@@H]3CCN(C)C[C@@H]3F)cccn2c1SC(F)(F)F [Example 140]	< 0.01	–	80 to 90	< 0.75	< 0.75	< 0.75	< 5	≥ 10	–	–	–	–	–	–	–	–	–
CNC(=O)c1ccc(NCC#Cc2nc3c(N[C@@H]4CCC(=O)N(C)C4)cccn3c2SC(F)(F)F)c(OC)c1 [Example 188]	0.01 to 0.1	≥ 10	80 to 90	0.75 to 1.5	0.75 to 1.5	0.75 to 1.5	≥ 10	5 to 10	–	–	–	–	–	–	–	–	–
CNC(=O)c1ccc(NCC#Cc2nc3c(N[C@@H]4CCN(C)C[C@@H]4F)cccn3c2CC(F)(F)F)c(OCC(F)(F)F)c1 [Example 61, 4-{[3-(8-{[(3S,4R)-3-fluoro-1-methylpiperidin-4-yl]amino}-3-(2,2,2-trifluoroethyl)imidazo[1,2-a]pyridin-2-yl)prop-2-yn-1-yl]amino}-N-methyl-3-(2,2,2-trifluoroethoxy)benzamide]	0.01 to 0.1	5 to 10	80 to 90	0.75 to 1.5	0.75 to 1.5	< 0.75	≥ 10	–	–	–	–	–	–	–	–	–	–
COc1cc(S(C)(=O)=O)ccc1NCC#Cc1nc2c(N[C@@H]3C[C@H]4CC[C@H](N4)[C@@H]3F)cccn2c1SC(F)(F)F [Example 131]	< 0.01	≥ 10	70 to 80	< 0.75	< 0.75	< 0.75	5 to 8	≥ 10	–	–	–	–	–	–	–	–	–
CCc1c(C#CCNc2ccc(S(C)(=O)=O)cc2OC)nc2c(NC3CCN(C)CC3)cccn12 [Example 16, N-(3-ethyl-2-{3-[(4-methanesulfonyl-2-methoxyphenyl)amino]prop-1-yn-1-yl}imidazo[1,2-a]pyridin-8-yl)-1-methylpiperidin-4-amine]	0.01 to 0.1	5 to 10	< 70	> 3	> 3	> 3	5 to 8	–	–	–	–	–	–	–	–	–	–
COc1cc(S(C)(=O)=O)ccc1NCC#Cc1cc2c(N[C@@H]3CCN(C)C[C@@H]3F)cccn2c1SC(F)F [Example 344]	–	–	–	–	–	–	–	–	< 0.01	≥ 10	< 0.75	> 90	< 0.75	< 0.75	5 to 8	–	–
CNC(=O)c1ccc(NCC#Cc2nc3c(N[C@H]4CCN(C)C(=O)C4)cccn3c2SC(F)(F)F)c(OC)c1 [Example 168]	< 0.01	5 to 10	> 90	0.75 to 1.5	< 0.75	< 0.75	≥ 10	≥ 10	–	–	–	–	–	–	–	–	–
CNC(=O)c1ccc(OC)c(NCC#Cc2nc3c(N[C@@H]4CCN(C)C[C@@H]4F)nccn3c2SC(F)(F)F)c1 [Example 212]	< 0.01	–	80 to 90	< 0.75	< 0.75	< 0.75	≥ 10	≥ 10	–	–	–	–	–	–	–	–	–
